For test [1], the target named is Beta-secretase 1 (Homo sapiens, UniProt P56817). In words: Inhibition of human BACE1 assessed as cleavage of TRF substrate.
Test [2] deals with Plasmepsin V (Plasmodium falciparum (isolate 3D7), UniProt Q8I6Z5). In words: Inhibition of Plasmodium falciparum plasmepsin V assessed as cleavage of wtKAHRP fluorogenic substrate.
The target in test [3] is Cathepsin D (Homo sapiens, UniProt P07339). The test is described as follows: Inhibition of human cathepsin D assessed as cleavage of wtKAHRP fluorogenic substrate.
The target of test [4] is Plasmepsin V (Plasmodium falciparum (isolate 3D7)) (UniProt Q8I6Z5). In words: Inhibition of Plasmodium falciparum plasmepsin V assessed as cleavage of wtKAHRP fluorogenic substrate at 1 uM.
In test [5] the test system is Plasmodium falciparum. The test is described as follows: Antiplasmodial activity against Plasmodium falciparum 3D7 infected in human O positive erythrocyte after 72 hrs. The class given is functional, organism-based. The settings on record: 3D7, 72 h.
In test [6] the test system is HepG2. The test is described as follows: Cytotoxicity against human HepG2 cells assessed as cell death after 48 hrs by Cell Titer-Glo assay. The class given is cell-based. Particulars: HepG2, 48 h.
The target in test [7] is Plasmepsin V (Plasmodium falciparum (isolate 3D7)) (UniProt Q8I6Z5). The test is described as follows: Inhibition of plasmepsin V in Plasmodium falciparum trophozoite expressing PfEMP3-GFP infected erythrocyte assessed as PEXEL processing at 20 uM by immunoblotting analysis. On the technique in general: A western blot detects proteins with antibodies after separation by electrophoresis.

Test [8] concerns the target Plasmepsin V (Plasmodium vivax, UniProt A0A0H4FQ60). The test is described as follows: Inhibition of Plasmodium vivax plasmepsin V by fluorogenic PEXEL cleavage assay.
Test [9] deals with Plasmepsin V (Plasmodium vivax) (UniProt A0A0H4FQ60). In words: Inhibition of Plasmodium vivax plasmepsin V at 1 uM by fluorogenic PEXEL cleavage assay.

Values joined by “and” are separate entries in the source; they are usually repeats but may differ in a detail not shown here. Identical values can stand only once. Square brackets hold non-standard residues; d marks the D form. Peptide text beside a SMILES is read from it. * marks the point of attachment. Sta = CC(C)C[C@H](N)[C@@H](O)CC(=O)O; NHPhenethyl = c1ccc(CCN*)cc1; Cbz = O=C(OCc1ccccc1)*; NHBn = c1ccc(CN*)cc1; Bz = O=C(c1ccccc1)*; GABA = NCCCC(=O)O

Sequence of Cathepsin D (P07339 65-162 limits assumed): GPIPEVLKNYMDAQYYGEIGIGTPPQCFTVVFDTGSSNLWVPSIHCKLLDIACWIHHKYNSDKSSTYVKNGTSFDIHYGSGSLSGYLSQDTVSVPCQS
Sequence of Cathepsin D (P07339 169-412 limits assumed): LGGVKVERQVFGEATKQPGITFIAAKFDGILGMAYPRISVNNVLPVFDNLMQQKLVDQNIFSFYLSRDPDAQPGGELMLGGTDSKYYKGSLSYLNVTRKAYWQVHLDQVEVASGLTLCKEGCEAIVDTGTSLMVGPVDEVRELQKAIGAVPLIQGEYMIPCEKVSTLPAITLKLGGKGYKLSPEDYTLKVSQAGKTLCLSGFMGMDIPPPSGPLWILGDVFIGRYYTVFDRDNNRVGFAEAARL
Sequence of Beta-secretase 1 (P56817 whole entry): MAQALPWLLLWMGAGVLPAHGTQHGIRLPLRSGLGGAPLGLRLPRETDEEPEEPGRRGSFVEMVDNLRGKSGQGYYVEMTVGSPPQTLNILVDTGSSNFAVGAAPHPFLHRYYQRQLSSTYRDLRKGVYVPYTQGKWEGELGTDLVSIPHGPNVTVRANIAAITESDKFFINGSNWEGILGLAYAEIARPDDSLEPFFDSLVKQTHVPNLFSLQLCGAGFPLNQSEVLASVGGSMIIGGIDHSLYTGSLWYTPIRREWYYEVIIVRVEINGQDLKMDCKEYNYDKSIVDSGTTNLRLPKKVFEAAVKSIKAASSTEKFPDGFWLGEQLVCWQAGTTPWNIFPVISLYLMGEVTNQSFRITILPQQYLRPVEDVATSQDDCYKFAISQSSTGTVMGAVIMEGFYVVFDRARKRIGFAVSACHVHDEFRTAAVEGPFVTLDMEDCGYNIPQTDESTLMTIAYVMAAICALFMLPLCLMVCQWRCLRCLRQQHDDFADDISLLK
Sequence of Plasmepsin V (Plasmodium falciparum (isolate 3D7)) (Q8I6Z5 whole entry, looked up): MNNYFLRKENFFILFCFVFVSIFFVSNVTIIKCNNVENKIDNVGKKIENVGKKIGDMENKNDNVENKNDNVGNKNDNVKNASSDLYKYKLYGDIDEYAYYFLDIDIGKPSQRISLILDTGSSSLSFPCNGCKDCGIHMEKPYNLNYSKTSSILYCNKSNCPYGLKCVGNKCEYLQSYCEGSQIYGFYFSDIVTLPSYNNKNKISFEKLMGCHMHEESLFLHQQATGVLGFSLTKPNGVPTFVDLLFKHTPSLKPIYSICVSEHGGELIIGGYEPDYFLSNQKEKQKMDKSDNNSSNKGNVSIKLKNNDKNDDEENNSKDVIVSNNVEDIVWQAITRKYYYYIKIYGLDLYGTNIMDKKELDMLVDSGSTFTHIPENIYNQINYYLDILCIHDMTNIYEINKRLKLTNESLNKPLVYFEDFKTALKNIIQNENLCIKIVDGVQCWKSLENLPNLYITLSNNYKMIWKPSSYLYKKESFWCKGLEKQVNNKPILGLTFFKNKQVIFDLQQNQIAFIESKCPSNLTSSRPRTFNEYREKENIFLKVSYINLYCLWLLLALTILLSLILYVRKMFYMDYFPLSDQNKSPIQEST
Sequence of Plasmepsin V (Plasmodium falciparum (isolate 3D7), UniProt Q8I6Z5) (Q8I6Z5 whole entry): as the sequence (Q8I6Z5 whole entry, looked up) above
Sequence of Plasmepsin V (Plasmodium vivax) (A0A0H4FQ60 as listed by the source): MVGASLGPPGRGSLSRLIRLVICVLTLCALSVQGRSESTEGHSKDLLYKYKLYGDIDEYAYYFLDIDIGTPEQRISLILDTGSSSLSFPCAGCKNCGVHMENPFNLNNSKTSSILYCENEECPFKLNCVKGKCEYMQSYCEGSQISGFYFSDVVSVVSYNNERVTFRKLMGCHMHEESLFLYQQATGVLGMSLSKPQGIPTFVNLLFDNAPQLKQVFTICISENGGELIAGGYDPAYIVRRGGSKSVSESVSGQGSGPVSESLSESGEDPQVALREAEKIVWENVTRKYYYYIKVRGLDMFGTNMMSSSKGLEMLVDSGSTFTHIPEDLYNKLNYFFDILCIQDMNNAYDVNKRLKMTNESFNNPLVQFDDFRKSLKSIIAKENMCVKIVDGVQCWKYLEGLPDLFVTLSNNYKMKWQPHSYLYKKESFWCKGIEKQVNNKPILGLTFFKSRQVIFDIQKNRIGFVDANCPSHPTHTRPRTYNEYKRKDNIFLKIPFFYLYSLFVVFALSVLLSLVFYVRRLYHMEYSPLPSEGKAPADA
Sequence of Plasmepsin V (Plasmodium vivax, UniProt A0A0H4FQ60) (A0A0H4FQ60 whole entry): as the sequence (A0A0H4FQ60 as listed by the source) above

As to `CC(C)C[C@H](NC(=O)[C@H](C)NC(=O)[C@H](CCCNC(=N)N)NC(=O)OCc1ccccc1)[C@@H](O)CC(=O)NCCc1ccc(Cl)cc1`, the values for the IC50 in test [1], in [2] and in test [3] were greater than 100 µM, 0.348 µM and greater than 100 µM, respectively.

With `CC(C)C[C@H](NC(=O)[C@H](C)NC(=O)[C@H](CCCNC(=N)N)NC(=O)OCc1ccccc1)[C@@H](O)CC(=O)NCCc1ccccc1` (Cbz-Arg-Ala-[Sta]-NHPhenethyl), the IC50 in test [1] was greater than 100 µM; in [2], 0.622 µM; in test [3], 29 µM. Moreover, the inhibition in test [4] was determined as 79%.

Turning to `CC(C)C[C@H](NC(=O)[C@H](Cc1ccccc1)NC(=O)[C@H](CCCNC(=N)N)NC(=O)OCc1ccccc1)[C@@H](O)CC(=O)NC1CCCCC1`, the IC50 is greater than 100 µM in test [1], 0.23 µM in test [2] and 4.8 µM in test [3].

As to `CC(=O)N[C@@H](CCCNC(=N)N)C(=O)N[C@@H](C)C(=O)N[C@@H](CC(C)C)[C@@H](O)CC(=O)N[C@@H](C)C(N)=O` (Ac-RA[Sta]A-NH2), the IC50 in test [1] was greater than 100 µM; in test [2], 0.613 µM; in test [3], greater than 100 µM.

Take `CC(C)C[C@H](NC(=O)[C@H](C)NC(=O)[C@H](CCc1ccccc1)NC(=O)OCc1ccccc1)[C@@H](O)CC(=O)NC1CCCCC1`: the IC50 in test [1] was greater than 100 µM; in test [2], greater than 20 µM; in [3], 0.043 µM.

`CC(=O)N[C@@H](CCCNC(=N)N)C(=O)N[C@@H](C)C(=O)N[C@@H](CC(C)C)[C@@H](O)CC(=O)NCCCC(N)=O` (Ac-RA[Sta][GABA]-NH2): the results for the IC50 in test [1], in [2] and in test [3] were greater than 100 µM, 0.865 µM and greater than 100 µM, respectively.

Consider `CC(C)C[C@H](NC(=O)[C@H](C)NC(=O)[C@H](CCCCN)NC(=O)OCc1ccccc1)[C@@H](O)CC(=O)NC1CCCCC1`, for which the IC50 in test [1] is greater than 100 µM; in test [2], greater than 20 µM; in test [3], greater than 100 µM.

In the case of `CC(C)C[C@H](NC(=O)[C@@H](NC(=O)[C@H](CCCNC(=N)N)NC(=O)OCc1ccccc1)C(C)C)[C@@H](O)CC(=O)NC1CCCCC1`, the IC50 in [1] is greater than 100 µM; in test [2] it was 0.029 µM; in test [3] it was 0.713 µM. Also, the EC50 is 9.8 µM in test [5] and greater than 50 µM in [6]. Moreover, in [7], the Activity amounted to 0.24 OD/mm2.

Turning to `CCN(CC)CCCC(C)Nc1ccnc2cc(Cl)ccc12` (stereo unspecified) [CHLOROQUINE], the EC50 in test [5] is 0.003 µM.

`CC(C)C[C@H](NC(=O)[C@H](C)NC(=O)[C@H](CCCNC(=N)N)NC(=O)COCc1ccccc1)[C@@H](O)CC(=O)NCCc1ccccc1`: the IC50 was greater than 100 µM in test [1], 0.55 µM in [2] and greater than 100 µM in [3]. Moreover, the inhibition in test [4] was found to be 81%. For the same compound, the EC50 in [5] is 23 µM; in [6], greater than 50 µM. Besides, in [7], the Activity came to 0.16 OD/mm2.

With `CC(C)C[C@H](NC(=O)[C@H](CCCNC(=N)N)NC(=O)OCc1ccccc1)C(=O)N[C@@H](CC(C)C)[C@@H](O)CC(=O)NC1CCCCC1`, the IC50 is greater than 100 µM in test [1], 0.077 µM in test [2] and 5.1 µM in test [3]. In addition, the EC50 in [5] was 8.9 µM; in [6], greater than 50 µM. The Activity in test [7] was 0.26 OD/mm2.

Consider `CC(C)C[C@H](NC(=O)[C@H](C)NC(=O)[C@H](CCCNC(=N)N)NC(=O)OCc1ccccc1)[C@@H](O)CC(=O)NC1CCCCC1`, for which the IC50 in [1] was greater than 100 µM; in test [2], 0.614 µM; in test [3], greater than 100 µM. The inhibition in [4] is 54% and 51%. Also, the EC50 was 34.6 µM in test [5] and greater than 50 µM in test [6]. Further, the Activity in test [7] came to 0.2 OD/mm2.

As for `CC(C)C[C@H](NC(=O)[C@H](C)NC(=O)[C@H](CCCNC(=N)N)NC(=O)OCc1ccccc1)[C@@H](O)CC(=O)NC1Cc2ccccc2C1`, the IC50 in [1] was greater than 100 µM; in [2] it was 0.772 µM; in test [3] it was greater than 100 µM. Moreover, the inhibition in [4] stood at 66%.

In the case of `CC(C)C[C@H](NC(=O)[C@@H](NC(=O)[C@H](CCCNC(=N)N)NS(=O)(=O)Cc1ccccc1)C(C)C)[C@@H](O)CC(=O)NCCc1ccccc1`, the IC50 in test [1] was greater than 100 µM; in [8], 0.024 µM; in test [2], 0.019 µM; in test [3] it was 32 µM. Besides, the EC50 is 2.5 µM in test [5] and greater than 50 µM in test [6]. Besides, the Activity in test [7] was 2.76 OD/mm2.

For `CC(C)C[C@H](NC(=O)[C@H](C)NC(=O)[C@H](CCCNC(=N)N)NS(=O)(=O)Cc1ccccc1)[C@@H](O)CC(=O)NCCc1ccccc1`, the half-inhibitory concentration (IC50) in test [1] is greater than 100 µM; in test [2] it was 0.625 µM; in test [3], greater than 100 µM. The inhibition in [4] stood at 89%.

Turning to `CC(=O)N[C@@H](CCCNC(=N)N)C(=O)N[C@@H](C)C(=O)N[C@@H](CC(C)C)[C@@H](O)CC(=O)N[C@@H](CCC(N)=O)C(N)=O` (Ac-RA[Sta]Q-NH2), the values for the IC50 in test [1], in [2] and in [3] were greater than 100 µM, 0.556 µM and greater than 100 µM, respectively.

Take `CC(C)C[C@H](NC(=O)[C@H](C)NC(=O)[C@H](CCCNC(=N)N)NC(=O)OCc1ccccc1)[C@@H](O)CC(=O)NC(C)c1ccccc1` (mixture of isomers): the IC50 in test [1] is greater than 100 µM; in test [2], 0.569 µM; in test [3] it was greater than 100 µM. Moreover, in test [4], the inhibition turned out to be 56%.

Consider `CC(C)C[C@H](NC(=O)[C@H](C)NC(=O)[C@H](CCCNC(=N)N)NC(=O)OCc1ccccc1)[C@@H](O)CC(=O)N(C)CCc1ccc(Cl)cc1`, for which the IC50 in test [1] was greater than 100 µM; in test [2] it was 2.01 µM; in [3] it was greater than 100 µM. Besides, the inhibition in test [4] was 20%.

Turning to `CC(C)C[C@H](NC(=O)[C@H](C)NC(=O)[C@H](CCCNC(=N)N)NC(=O)c1ccccc1)[C@@H](O)CC(=O)NCCc1ccccc1` (Bz-Arg-Ala-[Sta]-NHPhenethyl), the IC50 was greater than 100 µM in [1], 0.774 µM in [2] and greater than 100 µM in test [3]. For the same compound, the inhibition in test [4] is 62%.

Take `CC(C)C[C@H](NC(=O)[C@H](C)NC(=O)[C@H](CCCNC(=N)N)NC(=O)OCc1ccccc1)[C@@H](O)CC(=O)NCc1ccccc1` (Cbz-Arg-Ala-[Sta]-NHBn): the IC50 in test [1] was greater than 100 µM; in test [2], 0.53 µM; in test [3] it was greater than 100 µM. For the same compound, the inhibition in test [4] was determined as 60%.

As for `CC[C@H](C)[C@H](NC(=O)[C@H](CCCNC(=N)N)NC(=O)OCc1ccccc1)C(=O)N[C@@H](CC(C)C)[C@@H](O)CC(=O)NC1CCCCC1`, the IC50 in test [1] was greater than 100 µM; in test [2], 0.026 µM; in test [3], 0.447 µM. Besides, the response in [5] was half-maximal at 6.8 µM (EC50). Further, in test [7], the Activity turned out to be 0.53 OD/mm2.

Regarding `CC(C)C[C@H](NC(=O)[C@H](C)NC(=O)[C@H](CCCNC(=N)N)NS(=O)(=O)c1ccccc1)[C@@H](O)CC(=O)NCCc1ccccc1`, the values for the half-maximal inhibitory concentration (IC50) in test [1], in test [2] and in test [3] were greater than 100 µM, 0.378 µM and greater than 100 µM, respectively. Further, the inhibition in test [4] came out at 78%. For the same compound, the EC50 is 16.3 µM in test [5] and greater than 50 µM in test [6]. Further, in [7], the Activity is 0.31 OD/mm2.

Turning to `CC(=O)N[C@@H](CCCNC(=N)N)C(=O)N[C@@H](C)C(=O)N[C@@H](CC(C)C)[C@@H](O)CC(=O)NC1CCCCC1`, the IC50 in test [1] was greater than 100 µM; in test [2], 0.967 µM; in test [3] it was greater than 100 µM.

Consider `C[C@H](NC(=O)[C@H](CCCNC(=N)N)NC(=O)OCc1ccccc1)C(=O)N[C@@H](CC1CCCCC1)[C@@H](O)CC(=O)NC1CCCCC1`, for which, in test [9], the inhibition worked out at 35%. In addition, the IC50 in [2] was greater than 20 µM.

Consider `CC(C)C[C@H](NC(=O)[C@H](C)NC(=O)[C@H](CCCN)NC(=O)OCc1ccccc1)[C@@H](O)CC(=O)NC1CCCCC1`, for which the concentration for half-maximal inhibition (IC50) in test [1] is greater than 100 µM; in test [2], greater than 20 µM; in [3], greater than 100 µM. Also, the EC50 in [5] and in test [6] was greater than 50 µM throughout. Besides, the Activity in test [7] was found to be 0.18 OD/mm2.

For orientation: IC50 means the concentration needed to halve the response being measured. Usually inhibition stands for the share of the control response that was lost under treatment. One may read the EC50 as the concentration at which the effect is half-maximal.

Source of the values: ChEMBL document CHEMBL3352063, “Transition state mimetics of the Plasmodium export element are potent inhibitors of Plasmepsin V from P. falciparum and P. vivax” (J Med Chem, 2014).
